Measured values published in patent US10660877B2 (BRISTOL-MYERS SQUIBB COMPANY, priority 2016, dated 2020).
Read-outs that look alike come from different tables or passages of the source.

How the values were obtained:
human TLR9 = human TLR9 (Homo sapiens (Human), UniProt Q9NR96); assay: TLR9 inhibition reporter assay (HEK-Blue cells, SEAP reporter, ODN2006 stimulation);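 also: compounds tested over 0.05 nM to 50 µM, 22 h incubation, inhibition taken as SEAP signal drop from agonist plus DMSO wells toward a known inhibitor control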
human TLR8 = human TLR8 (Homo sapiens (Human), UniProt Q9NR97); assay: TLR8 inhibition reporter assay (HEK-Blue cells, SEAP reporter, R848 stimulation);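 also: compounds tested from 0.05 nM to 50 µM, 22 h at 37 °C, SEAP measured with HEK-Blue Detection, inhibition relative to agonist plus DMSO versus a known inhibitor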
human TLR7 = human TLR7 (Homo sapiens (Human), UniProt Q9NYK1); assay: TLR7 inhibition reporter assay (HEK-Blue cells, SEAP reporter, gardiquimod stimulation); format: cell-based; conditions: HEK-Blue cells overexpressing human TLR7, gardiquimod 7.5 μM
Procedure: TLR7/8/9 Inhibition Reporter Assays
Briefly, cells are seeded into Greiner 384 well plates (15000 cells per well for TLR7, 20,000 for TLR8 and 25,000 for TLR9) and then treated with test compounds in DMSO to yield a final dose response concentration range of 0.05 nM-50 μM. […] After a 22 hour incubation at 37° C., 5% CO2, SEAP levels are determined with the addition of HEK-Blue™ Detection reagent (Invivogen), a cell culture medium that allows for detection of SEAP, according to manufacturer's specifications. The percent inhibition is determined as the % reduction in the HEK-Blue signal present in wells treated with agonist plus DMSO alone compared to wells treated with a known inhibitor.

[1] = read-out: TLR9 IC50, HEK-Blue cells overexpressing human TLR9, ODN2006 5 nM
[2] = read-out: TLR8 IC50, HEK-Blue cells overexpressing human TLR8, R848 15.9 μM

Chain of human TLR7 (Q9NYK1 27-1049): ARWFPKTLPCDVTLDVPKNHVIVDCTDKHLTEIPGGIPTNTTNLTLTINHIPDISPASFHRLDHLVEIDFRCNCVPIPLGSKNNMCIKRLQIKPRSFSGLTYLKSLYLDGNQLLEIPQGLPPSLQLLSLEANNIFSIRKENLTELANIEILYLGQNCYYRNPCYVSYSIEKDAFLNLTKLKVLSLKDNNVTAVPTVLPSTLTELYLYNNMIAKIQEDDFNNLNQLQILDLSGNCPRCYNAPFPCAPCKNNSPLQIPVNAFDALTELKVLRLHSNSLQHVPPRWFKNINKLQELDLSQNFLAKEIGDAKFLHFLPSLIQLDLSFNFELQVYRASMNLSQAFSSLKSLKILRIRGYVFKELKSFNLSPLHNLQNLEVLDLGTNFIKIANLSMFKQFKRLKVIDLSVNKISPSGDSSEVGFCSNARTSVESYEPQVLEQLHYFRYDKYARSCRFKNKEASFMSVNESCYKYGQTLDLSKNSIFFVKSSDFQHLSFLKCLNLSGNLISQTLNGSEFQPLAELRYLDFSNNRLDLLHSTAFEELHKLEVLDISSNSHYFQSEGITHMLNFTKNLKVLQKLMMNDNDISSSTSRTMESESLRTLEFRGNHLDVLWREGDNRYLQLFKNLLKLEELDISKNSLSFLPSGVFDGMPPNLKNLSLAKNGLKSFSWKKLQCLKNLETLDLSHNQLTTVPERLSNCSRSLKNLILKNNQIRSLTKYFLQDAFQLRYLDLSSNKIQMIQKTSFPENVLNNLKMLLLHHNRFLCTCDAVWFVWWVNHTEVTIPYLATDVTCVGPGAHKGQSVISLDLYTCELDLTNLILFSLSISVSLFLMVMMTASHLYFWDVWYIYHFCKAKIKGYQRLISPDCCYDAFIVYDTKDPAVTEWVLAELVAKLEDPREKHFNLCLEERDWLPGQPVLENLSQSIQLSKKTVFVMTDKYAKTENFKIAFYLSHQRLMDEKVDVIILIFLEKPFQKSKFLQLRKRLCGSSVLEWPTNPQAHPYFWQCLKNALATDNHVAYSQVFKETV
Chain of human TLR8 (Q9NR97 27-1041): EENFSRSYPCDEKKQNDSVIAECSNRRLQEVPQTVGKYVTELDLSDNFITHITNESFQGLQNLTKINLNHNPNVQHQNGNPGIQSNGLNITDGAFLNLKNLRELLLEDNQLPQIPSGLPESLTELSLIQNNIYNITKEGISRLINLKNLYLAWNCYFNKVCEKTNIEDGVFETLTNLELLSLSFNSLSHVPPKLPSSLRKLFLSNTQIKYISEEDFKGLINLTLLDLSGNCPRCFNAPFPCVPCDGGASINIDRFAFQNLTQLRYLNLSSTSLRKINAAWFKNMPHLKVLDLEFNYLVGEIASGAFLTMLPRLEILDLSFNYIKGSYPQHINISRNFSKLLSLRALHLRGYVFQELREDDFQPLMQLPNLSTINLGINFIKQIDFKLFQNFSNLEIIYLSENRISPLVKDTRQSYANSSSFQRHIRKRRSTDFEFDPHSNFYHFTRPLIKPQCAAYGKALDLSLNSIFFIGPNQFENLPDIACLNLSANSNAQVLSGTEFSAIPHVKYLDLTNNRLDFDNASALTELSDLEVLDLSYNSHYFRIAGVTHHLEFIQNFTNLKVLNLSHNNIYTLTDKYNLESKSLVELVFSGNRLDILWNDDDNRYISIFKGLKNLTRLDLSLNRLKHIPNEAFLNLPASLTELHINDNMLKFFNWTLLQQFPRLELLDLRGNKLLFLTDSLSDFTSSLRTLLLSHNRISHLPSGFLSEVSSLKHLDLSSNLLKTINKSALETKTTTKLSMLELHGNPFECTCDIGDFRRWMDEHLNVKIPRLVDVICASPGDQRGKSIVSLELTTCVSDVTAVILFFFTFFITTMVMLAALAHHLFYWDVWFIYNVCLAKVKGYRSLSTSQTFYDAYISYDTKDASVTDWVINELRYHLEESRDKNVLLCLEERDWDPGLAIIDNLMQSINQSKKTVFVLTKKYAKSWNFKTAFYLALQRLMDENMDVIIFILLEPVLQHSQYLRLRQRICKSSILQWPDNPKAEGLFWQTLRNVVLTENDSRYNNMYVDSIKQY
Chain of human TLR9 (Q9NR96 26-1032): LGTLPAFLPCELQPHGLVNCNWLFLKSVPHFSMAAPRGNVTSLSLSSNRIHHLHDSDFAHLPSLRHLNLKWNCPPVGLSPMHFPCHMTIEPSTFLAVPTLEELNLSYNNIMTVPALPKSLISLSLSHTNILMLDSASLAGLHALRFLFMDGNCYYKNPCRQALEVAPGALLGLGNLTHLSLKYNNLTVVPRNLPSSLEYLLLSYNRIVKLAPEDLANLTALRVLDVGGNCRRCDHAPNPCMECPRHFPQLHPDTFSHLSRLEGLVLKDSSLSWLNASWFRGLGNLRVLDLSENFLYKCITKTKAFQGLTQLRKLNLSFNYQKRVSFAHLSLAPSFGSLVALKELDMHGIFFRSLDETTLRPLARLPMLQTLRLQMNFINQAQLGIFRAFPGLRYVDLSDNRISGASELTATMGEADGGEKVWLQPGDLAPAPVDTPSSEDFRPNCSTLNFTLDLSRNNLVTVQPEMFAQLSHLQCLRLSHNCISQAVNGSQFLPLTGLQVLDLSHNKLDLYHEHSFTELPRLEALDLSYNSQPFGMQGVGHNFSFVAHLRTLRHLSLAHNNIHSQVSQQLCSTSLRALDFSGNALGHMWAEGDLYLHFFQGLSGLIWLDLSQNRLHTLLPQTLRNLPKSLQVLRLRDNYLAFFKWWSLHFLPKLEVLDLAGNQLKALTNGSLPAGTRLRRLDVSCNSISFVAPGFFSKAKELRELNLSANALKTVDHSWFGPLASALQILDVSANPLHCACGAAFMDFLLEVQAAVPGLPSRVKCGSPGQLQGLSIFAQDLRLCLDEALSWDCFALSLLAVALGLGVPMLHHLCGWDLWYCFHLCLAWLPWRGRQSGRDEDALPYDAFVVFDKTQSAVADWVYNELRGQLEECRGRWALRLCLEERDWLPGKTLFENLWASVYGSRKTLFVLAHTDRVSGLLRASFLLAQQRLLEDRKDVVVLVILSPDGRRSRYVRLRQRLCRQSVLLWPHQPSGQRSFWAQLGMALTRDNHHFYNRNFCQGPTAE

IC50 (human TLR9; [1]) [nM]	IC50 (human TLR8; [2]) [nM]	IC50 (human TLR7) [nM]	IC50 (human TLR9; TLR9 IC50, HEK-Blue cells overexpressing human TLR9, ODN2006 5 nM) [nM]	IC50 (human TLR8; TLR8 IC50, HEK-Blue cells overexpressing human TLR8, R848 15.9 μM) [nM]	SMILES
771	26	3.5			CCCN(CCO)CC(=O)N1CCC(c2ccc3[nH]c(-c4cc(C)nc(C)c4)c(C(C)C)c3c2)CC1 [Example 398, 1-(4-(2-(2,6-dimethylpyridin-4-yl)-3-isopropyl-1H-indol-5-yl)piperidin-1-yl)-2-((2-hydroxyethyl)(propyl)amino)ethan-1-one]
7630	206	55.1			Cc1cc(-c2[nH]c3ccc(C4CCN(C(=O)C5CC(=O)N(C(C)(C)C)C5)CC4)cc3c2C(C)C)ccn1 (stereo not drawn) [Example 613, 1-(tert-butyl)-4-(4-(3-isopropyl-2-(2-methylpyridin-4-yl)-1H-indol-5-yl)piperidine-1-carbonyl)pyrrolidin-2-one]
> 50000	206	12.1			Cc1cc(-c2[nH]c3ccc(C4CCN(C(=O)Cn5cncn5)CC4)cc3c2C(C)C)cc(C)n1 [Example 170, 1-(4-(2-(2,6-dimethylpyridin-4-yl)-3-isopropyl-1H-indol-5-yl)piperidin-1-yl)-2-(1H-1,2,4-triazol-1-yl)ethan-1-one]
12700	1.9	3.2			Cc1cc(-c2[nH]c3ccc(C4CCNCC4)cc3c2C(C)C)c(Cl)c(C)n1 [Example 50, 2-(3-chloro-2,6-dimethylpyridin-4-yl)-3-isopropyl-5-(piperidin-4-yl)-1H-indole]
1220	12.8	6.2			Cc1cc(-c2[nH]c3ccc(C4CCN(CC(=O)NCC(F)(F)F)CC4)cc3c2C(C)C)cc(C)n1 [Example 214, 2-(4-(2-(2,6-dimethylpyridin-4-yl)-3-isopropyl-1H-indol-5-yl)piperidin-1-yl)-N-(2,2,2-trifluoroethyl)acetamide]
3910	29	5.3			Cc1cc(-c2[nH]c3ccc(C4CCN(C(=O)CN5CCOCC5)CC4)cc3c2C(C)C)cc(C)n1 [Example 350, 1-(4-(2-(2,6-dimethylpyridin-4-yl)-3-isopropyl-1H-indol-5-yl)piperidin-1-yl)-2-morpholinoethan-1-one]
119	28.2	6.6			CCc1c(-c2cc(C)nc(C)c2)[nH]c2ccc(C3CCN(C(=O)CNC)CC3)cc12 [Example 529, 1-(4-(2-(2,6-dimethylpyridin-4-yl)-3-ethyl-1H-indol-5-yl)piperidin-1-yl)-2-(methylamino)ethan-1-one]
2240	3.7	3			Cc1nccc(-c2[nH]c3ccc(C4CCN(CC(=O)N(C)C)CC4)cc3c2C(C)C)c1F [Example 648, 2-(4-(2-(3-fluoro-2-methylpyridin-4-yl)-3-isopropyl-1H-indol-5-yl)piperidin-1-yl)-N,N-dimethylacetamide]
817	9	4.3			Cc1cc(-c2[nH]c3ccc(C4CCN(CC(=O)NC5(C)CC5)CC4)cc3c2C(C)C)cc(C)n1 [Example 251, 2-(4-(2-(2,6-dimethylpyridin-4-yl)-3-isopropyl-1H-indol-5-yl)piperidin-1-yl)-N-(1-methylcyclopropyl)acetamide]
123	20.3	12.1			Cc1cc(-c2[nH]c3ccc(C4CCN(C(C)C)CC4)cc3c2CC(F)F)cc(C)n1 [Example 536, 3-(2,2-difluoroethyl)-2-(2,6-dimethylpyridin-4-yl)-5-(1-isopropylpiperidin-4-yl)-1H-indole]
173	8.1	8.3			Cc1cc(-c2[nH]c3ccc(C4CCN(C5CCN(C(C)C)CC5)CC4)cc3c2C(C)C)cc(C)n1 [Example 427, 2-(2,6-dimethylpyridin-4-yl)-3-isopropyl-5-(1′-isopropyl-[1,4′-bipiperidin]-4-yl)-1H-indole]
282	2.5	11.2			Cc1cc(-c2[nH]c3ccc(C4CCN(C[C@@H]5CCNC5)CC4)cc3c2C(C)C)ccn1 [Example 738, (R)-3-isopropyl-2-(2-methylpyridin-4-yl)-5-(1-(pyrrolidin-3-ylmethyl)piperidin-4-yl)-1H-indole]
		5.7	8860	47.7	Cc1cc(-c2[nH]c3ccc(C4CCN(C(=O)Cc5cc(N)n[nH]5)CC4)cc3c2C(C)C)cc(C)n1 [Example 139, 2-(3-amino-1H-pyrazol-5-yl)-1-(4-(2-(2,6-dimethylpyridin-4-yl)-3-isopropyl-1H-indol-5-yl)piperidin-1-yl)ethan-1-one]
40000	60.5	4.8			Cc1cc(-c2[nH]c3ccc(C4CCN(C(=O)c5cn(C)nc5C)CC4)cc3c2C(C)C)cc(C)n1 [Example 141, (1,3-dimethyl-1H-pyrazol-4-yl)(4-(2-(2,6-dimethylpyridin-4-yl)-3-isopropyl-1H-indol-5-yl)piperidin-1-yl)methanone]
1120	29.2	16.1			Cc1cc(-c2[nH]c3ccc(C4CCN(C5CCCC5)CC4)cc3c2C(C)C)cc(C)n1 [Example 326, 5-(1-cyclopentylpiperidin-4-yl)-2-(2,6-dimethylpyridin-4-yl)-3-isopropyl-1H-indole]
26000	31.7	2.7			Cc1cc(-c2[nH]c3ccc(C4CCN(C(=O)Cn5ncnn5)CC4)cc3c2C(C)C)cc(C)n1 [Example 155, 1-(4-(2-(2,6-dimethylpyridin-4-yl)-3-isopropyl-1H-indol-5-yl)piperidin-1-yl)-2-(2H-tetrazol-2-yl) ethan-1-one]
267	6.7	8.6			Cc1ccc(CN2CCC(c3ccc4[nH]c(-c5cc(C)nc(C)c5)c(C(C)C)c4c3)CC2)cn1 [Example 437, 2-(2,6-dimethylpyridin-4-yl)-3-isopropyl-5-(1-((6-methylpyridin-3-yl)methyl)piperidin-4-yl)-1H-indole]
495	71	7			Cc1cc(-c2[nH]c3ccc(C4CCN(C(=O)CN(CCO)Cc5ccc(F)cc5)CC4)cc3c2C(C)C)cc(C)n1 [Example 407, 1-(4-(2-(2,6-dimethylpyridin-4-yl)-3-isopropyl-1H-indol-5-yl)piperidin-1-yl)-2-((4-fluorobenzyl)(2-hydroxyethyl)amino)ethan-1-one]
559	7.3	3.1			Cc1cc(-c2[nH]c3ccc(C4CCN(C(=O)CN5CCCCC5)CC4)cc3c2C(C)C)cc(C)n1 [Example 351, 1-(4-(2-(2,6-dimethylpyridin-4-yl)-3-isopropyl-1H-indol-5-yl)piperidin-1-yl)-2-(piperidin-1-yl)ethan-1-one]
711	72.2	22.8			Cc1cc(-c2[nH]c3ccc(C4CCN(CC(=O)N(CCO)Cc5ccccc5)CC4)cc3c2C(C)C)cc(C)n1 [Example 293, N-benzyl-2-(4-(2-(2,6-dimethylpyridin-4-yl)-3-isopropyl-1H-indol-5-yl)piperidin-1-yl)-N-(2-hydroxyethyl)acetamide]
527	12.9	2.1			Cc1cc(-c2[nH]c3ccc(C4CCN(C(=O)CN5CCOC[C@@H]5CO)CC4)cc3c2C(C)C)cc(C)n1 [Example 405, (S)-1-(4-(2-(2,6-dimethylpyridin-4-yl)-3-isopropyl-1H-indol-5-yl)piperidin-1-yl)-2-(3-(hydroxymethyl)morpholino)ethan-1-one]
10900	269	60.3			CNC(=O)CN1CCC(c2ccc3[nH]c(-c4cc(C5CC5)ncc4F)c(C(C)C)c3c2)CC1 [Example 514, 2-(4-(2-(2-cyclopropyl-5-fluoropyridin-4-yl)-3-isopropyl-1H-indol-5-yl)piperidin-1-yl)-N-methylacetamide]
> 50000	36.8	15.6			Cc1cc(-c2[nH]c3ccc(C4CCN(C(=O)C5CC(=O)N(C)C5)CC4)cc3c2C(C)C)c(F)cn1 (stereo not drawn) [Example 583, 4-(4-(2-(5-fluoro-2-methylpyridin-4-yl)-3-isopropyl-1H-indol-5-yl)piperidine-1-carbonyl)-1-methylpyrrolidin-2-one]
1660	70.7	28.8			Cc1cc(-c2[nH]c3ccc(C4CCN(CC(=O)N(CCO)Cc5ccc(F)cc5)CC4)cc3c2C(C)C)cc(C)n1 [Example 300, 2-(4-(2-(2,6-dimethylpyridin-4-yl)-3-isopropyl-1H-indol-5-yl)piperidin-1-yl)-N-(4-fluorobenzyl)-N-(2-hydroxyethyl)acetamide]
2500	91.8	9.6			Cc1cc(-c2[nH]c3ccc(C4CCN(C(=O)CN(C)C5CCOC5)CC4)cc3c2C(C)C)cc(C)n1 (stereo not drawn) [Example 413, 1-(4-(2-(2,6-dimethylpyridin-4-yl)-3-isopropyl-1H-indol-5-yl)piperidin-1-yl)-2-(methyl(tetrahydrofuran-3-yl)amino)ethan-1-one]
> 50000	347	28.7			Cc1cc(-c2[nH]c3ccc(C4CCN(C(=O)c5ccc6ccccn6c5=O)CC4)cc3c2C(C)C)cc(C)n1 [Example 145, 3-(4-(2-(2,6-dimethylpyridin-4-yl)-3-isopropyl-1H-indol-5-yl)piperidine-1-carbonyl)-4H-quinolizin-4-one]
92	15.3	3.2			C=C(c1c(-c2cc(C)nc(C)c2)[nH]c2ccc(C3CCNCC3)cc12)C(F)(F)F [Example 91, 2-(2,6-dimethylpyridin-4-yl)-5-(piperidin-4-yl)-3-(3,3,3-trifluoroprop-1-en-2-yl)-1H-indole]
